The source of these data is EP4696306A1, “ADENOSINE TRIPHOSPHATE SECRETION INHIBITOR, HEPATIC STELLATE CELL ACTIVATION INHIBITOR, HEPATIC STELLATE CELL DEACTIVATOR, HEPATIC FIBROSIS THERAPEUTIC AGENT, NON-ALCOHOLIC STEATOHEPATITIS THERAPEUTIC AGENT, PSORIASIS THERAPEUTIC AGENT, AND USE OF COMPOUND FOR PRODUCING ADENOSINE TRIPHOSPHATE …” (KURUME UNIVERSITY, priority 2023, dated 2024).

Test [1] deals with T1, V-ATPase (Bos taurus, UniProt P31404).
T1 construct: from tissue; host or cells: bovine adrenal medulla chromaffin granule membranes
Put plainly: ATP-dependent proton transport by V-ATPase (acridine orange / oxonol-V fluorescence quenching). The test is classed as biochemical, bovine. The method, then:
(§1) Chromaffin granule membranes were prepared from adrenal glands collected from slaughtered cattle according to Reference A (Nathan Nelson et al., 1988, Chromaffin Granule Proton Pump, Methods in Enzymology, 157, 619-633). Chromaffin granule membranes prepared by sucrose density gradient centrifugation were suspended in 2 ml of SME buffer (20 mM MOPS-tris (pH 7.0), 0.3 M sucrose, 5 mM EDTA, 10 µg/ml leupeptin, and 10 µg/ml pepstatin) + 25% glycerol, and the resulting suspension was aliquoted and stored at -80°C. Under these conditions, the ATP transport activity, the V-ATPase activity, and the catecholamine transport activity remain fully active for at least one year.
ATP-dependent proton transport by V-ATPase was measured according to Reference B. Proton transport activity was measured using a spectrofluorometer at excitation wavelength of 492 nm and a fluorescence wavelength 540 nm, wherein fluorescence quenching of acridine orange was used as an index (N = 2). The transmembrane potential generated was measured using a spectrofluorometer at an excitation wavelength of 580 nm and a fluorescence wavelength of 630 nm, wherein fluorescence quenching of oxonol-V was used as an index (N = 2). The acridine measurement liquid (2 ml) contained 20 mM MOPS-tris (pH 7.0), 0.2 M sucrose, 0.1 M potassium chloride, 5 mM magnesium acetate, 0.2 µg valinomycin, 2 µM acridine orange, and about 20 µg of chromaffin granules. The oxonol-V measurement liquid (2 ml) contained 20 mM MOPS-tris (pH 7.0), 0.3 M sucrose, 5 mM magnesium acetate, 5 µM oxonol-V, and about 20 µg of chromaffin granules.
(§2) Chromaffin granule membrane vesicles were prepared in the same manner as in Example 5, and uptake of radiolabeled ATP into the vesicles was measured. Transport activity of catecholamine (dopamine) and ATP-dependent proton transport by V-ATPase were also measured in the same manner as in Example 5.

In another test the test system is catecholamine transport. Put plainly: Catecholamine (3H-dopamine) transport in chromaffin granule membranes. Type of test: biochemical, bovine. Conditions: MANT-ATP; N = 3. As to the method:
as §1
A catecholamine transport inhibition experiment was carried out in the same manner as the ATP transport experiment except that the experiment used a measurement liquid containing 20 mM MOPS-tris (pH 7.0), 0.1 M sucrose, 0.1 M potassium chloride, 5 mM magnesium acetate, and about 5 µg of chromaffin granule membranes. To 0.5 ml of the measurement liquid, 2 mM ATP was added, and the resulting mixture was incubated at 30°C for about 5 minutes, followed by addition of^3 [H]-dopamine thereto to a final concentration of 10 µM. After further incubation at 30°C for 15 minutes, 0.2 ml of the reaction liquid was subjected to suction filtration through a Millipore MCE membrane filter with a pore size of 0.45 µm, and the radioactivity on the filter was measured (N = 3). The substrate, ^3[H]-dopamine, was prepared by mixing 3,4-[RING-2,5,6-^3H]dihydroxyphenylethylamine (dopamine) (30 Ci/mmol) (manufactured by New England Nuclear) with dopamine hydrochloride (manufactured by LKT Laboratories) such that a final concentration of 0.1 mM was achieved during the use.
as §2

Test [2] has as its system ATP transport activity in isolated chromaffin granule membranes. Put plainly: ATP transport (3H-ATP uptake) in chromaffin granule membrane vesicles. Type of test: biochemical, bovine. The settings on record: N = 3. The method, then:
as §1
An ATP transport inhibition experiment for the chromaffin granule membrane was carried out according to Reference B (Yoshinori Moriyama et al., 2022, Is the vesicular nucleotide transporter a molecular target of eicosapentaenoic acid?, Frontiers in Pharmacology, 103389). About 20 µg of chromaffin granule membranes were added to 0.5 ml of measurement buffer (20 mM MOPS-tris (pH 7.0), 0.3 M sucrose, 5 mM potassium chloride, 5 mM magnesium acetate, 5 mM creatine phosphate, 10 units of creatine kinase, and 1 mM ^3[H]-ATP [15 KBq/assay]), followed by incubation at 30°C for 1 hour. Through a Millipore MCE membrane filter with a pore size 0.45 µm, 0.2 ml of the reaction liquid was filtered by suction. Thereafter, the filter was washed with 10 ml of 20 mM MOPS-tris (pH 7.0), 0.3 M sucrose, 5 mM potassium chloride, and 5 mM magnesium acetate, and dissolved in 10 ml of Clear-sol II (manufactured by Nacalai Tesque, Inc.). The radioactivity was then measured using a liquid scintillation counter (N = 3).
The reaction was initiated by adding 50 mM ^3[H]-ATP to a final concentration of 1 mM. The 50 mM ^3[H]-ATP was prepared by mixing an ATP-tris solution (manufactured by Sigma-Aldrich) with [2,8-^3H] adenosine triphosphate tetrasodium salt (26.0 Ci/mmol) (manufactured by New England Nuclear). PEP was used as a test reagent, and pyruvic acid was used as a negative control. Five minutes before the addition of ATP, PEP or pyruvic acid, as a solution in 20 mM MOPS-tris (pH 7.0), 0.3 M sucrose, 5 mM potassium chloride, and 5 mM magnesium acetate, was added to the measurement liquid to a final PEP concentration of 0.02, 0.05, 0.1, 0.2, 0.4, or 1 mM, or to a final pyruvic acid concentration of 0.5 or 1 mM.
as §2

The test system is the same in test [3]. The description is as above. Type of test: biochemical, bovine. The settings on record: MANT-ATP; N = 3.
The subject of test [4] is human epidermal keratinocytes. Put plainly: LPS-stimulated ATP secretion in keratinocytes. The settings on record: 10 µM; 18 hours incubation, LPS 10 µg/ml 10 minutes; N = 8. Type of test: cell-based. As to the method: Keratinocytes were cultured in the same manner as in Example 1. Keratinocytes were cultured at 2.5 × 10^4 cells/well in a 24-well plate at 37°C in 5% CO2 for 4 days. The medium was replaced with a test solution (Hanks' balanced salt solution (HBSS) (manufactured by Gibco) supplemented with imeglimin, metformin, or clodronate), and then incubation was performed at 37°C in 5% CO2 for 18 hours. Thereafter, LPS (10 µg/ml) was added thereto, and incubation was further carried out for 10 minutes, followed by collection of 200 µl of the supernatant. The supernatant was immediately treated on a heat block at 95°C for 10 minutes, and ATP in the supernatant was quantified using an ATP Assay Kit - Luminescence (manufactured by Dojindo) (N = 8).

In test [5] the test system is human epidermal keratinocytes. Put plainly: ATP secretion promoted by ionomycin in keratinocytes. The test is classed as cell-based. Conditions: 0.1 µM, 6 hours incubation, N = 3. As to the method: Human epidermal keratinocytes (Cryopreserved HEK, Lot 1758, Cell Applications Inc.) were cultured using an Epivita Keratinocyte Growth Medium Kit according to the manufacturer's instructions. The procedure was as follows. A supplement medium was added to a hydrocortisone-containing basal medium included in the medium preparation kit to prepare a complete medium. The medium in the dish was removed by aspiration. The cells were washed with 5 ml of BSS (Gbco), and then the BSS was removed by aspiration. After addition of 5 to 6 ml of trypsin/EDTA solution (Gbco), the dish was incubated at 37°C for 2 minutes. After addition of 5 ml of trypsin neutralization solution, the resulting cell suspension was transferred into two 15-ml Falcon tubes, and centrifuged at 200 × g for 5 minutes. The supernatant was removed by aspiration, and the pelleted cell cluster was suspended in 2 ml of the medium at 4.5 × 10^5 cells/ml. An aliquot of the resulting cell suspension was cryopreserved, while another aliquot was cultured and subjected to measurement.
ATP secretion by human epidermal keratinocytes (hereinafter referred to as "keratinocytes") was measured. Regarding control solutions, Krebs-Ringer HEPES supplemented with 0.2% BSA and 25 mM glucose (hereinafter also referred to as "Krebs/Iono(-)") was used as a negative control, and a solution prepared by adding 5 µM ionomycin to this solution (hereinafter also referred to as "Krebs/Iono(+)") was used as a positive control for ATP secretion. Ionomycin is a Ca^2+ ionophore. Addition of ionomycin to cells is known to promote influx of extracellular Ca^2+ into the cells to increase the intracellular Ca^2+ concentration, resulting in enhancement of ATP secretion. Test solutions were prepared by adding clodronate to Krebs/Iono(-) or Krebs/Iono(+) to a final concentration of 0.1 µM (hereinafter also referred to as "Clo/Iono(-)" or "Clo/Iono(+)", respectively) (N = 3).
Keratinocytes were cultured at 2.5 × 10^4 cells/well in a 24-well plate at 37°C in 5% CO2 for 4 days. The medium was removed by aspiration, replaced with Krebs/Iono(-) or Clo/Iono(-), and incubated at 37°C for 6 hours. These solutions were then removed by aspiration, and the content of each well incubated with Krebs/Iono(-) was replaced with 300 µl of a control solution (Krebs/Iono(-) or Krebs/Iono(+)), while the content of each well incubated with Clo/Iono(-) was replaced with 300 µl of a test solution (Clo/Iono(-) or Clo/Iono(+)). After further incubation at 37°C for 20 minutes, 200 µl of the supernatant was collected. The collected supernatant was immediately treated on a heat block at 95°C for 10 minutes, to inactivate ectonucleotidase. ATP in the supernatant was quantified using a Dojindo ATP assay kit - Luminescence (manufactured by Dojindo Laboratories).
After culturing keratinocytes, the medium was removed by aspiration, and replaced with Krebs/Iono(-), or Krebs/Iono(-) supplemented with 10 µM imeglimin, 0.1 µM EPA, 1 µM EPA, or 10 µM clodronate, followed by incubation for 6 hours. Subsequently, the solution was replaced with either a control solution (Krebs/Iono(-) or Krebs/Iono(+)) or a test solution (Krebs/Iono(+) supplemented with 10 µM imeglimin, 0.1 µM EPA, 1 µM EPA, or 10 µM clodronate), followed by incubation at 37°C for 20 minutes and then collection of 200 µl of the supernatant. The collected supernatant was immediately treated on a heat block at 95°C for 10 minutes to inactivate ectonucleotidase. ATP in the supernatant was quantified using a Dojindo ATP assay kit - Luminescence (manufactured by Dojindo Laboratories).
Keratinocytes were cultured in the same manner as in Example 1, and the medium was replaced with Krebs/Iono(-), Krebs/Iono(-) supplemented with 0.1 µM, 1 µM, or 10 µM imeglimin, or Krebs/Iono(-) supplemented with 0.1 µM, 1 µM, or 10 µM metformin, followed by incubation for 6 hours. […]

In a further test the target is T2, VNUT (Homo sapiens, UniProt Q9BYT1).
T2 sequence (Q9BYT1 1-436): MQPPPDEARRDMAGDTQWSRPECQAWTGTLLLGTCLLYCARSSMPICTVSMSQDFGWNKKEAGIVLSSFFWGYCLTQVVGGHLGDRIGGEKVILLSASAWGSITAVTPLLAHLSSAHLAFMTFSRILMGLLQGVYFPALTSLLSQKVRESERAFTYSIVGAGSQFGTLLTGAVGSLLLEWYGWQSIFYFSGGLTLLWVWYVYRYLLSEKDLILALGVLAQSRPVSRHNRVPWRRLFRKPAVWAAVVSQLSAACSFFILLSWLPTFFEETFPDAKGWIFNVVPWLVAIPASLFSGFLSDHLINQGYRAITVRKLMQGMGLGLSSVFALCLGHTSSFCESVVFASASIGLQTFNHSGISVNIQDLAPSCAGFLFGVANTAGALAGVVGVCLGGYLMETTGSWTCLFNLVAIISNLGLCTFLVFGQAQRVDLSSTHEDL
Put plainly: Inhibitory effect on VNUT (data not shown). Type of test: biochemical.

Test [6] concerns the target V-ATPase (Homo sapiens, UniProt P38606). Put plainly: Inhibitory effect on V-ATPase (data not shown). Type of test: biochemical.

Structures can show the parent of a compound that is named as a salt.

T1 sequence (P31404 whole entry, looked up): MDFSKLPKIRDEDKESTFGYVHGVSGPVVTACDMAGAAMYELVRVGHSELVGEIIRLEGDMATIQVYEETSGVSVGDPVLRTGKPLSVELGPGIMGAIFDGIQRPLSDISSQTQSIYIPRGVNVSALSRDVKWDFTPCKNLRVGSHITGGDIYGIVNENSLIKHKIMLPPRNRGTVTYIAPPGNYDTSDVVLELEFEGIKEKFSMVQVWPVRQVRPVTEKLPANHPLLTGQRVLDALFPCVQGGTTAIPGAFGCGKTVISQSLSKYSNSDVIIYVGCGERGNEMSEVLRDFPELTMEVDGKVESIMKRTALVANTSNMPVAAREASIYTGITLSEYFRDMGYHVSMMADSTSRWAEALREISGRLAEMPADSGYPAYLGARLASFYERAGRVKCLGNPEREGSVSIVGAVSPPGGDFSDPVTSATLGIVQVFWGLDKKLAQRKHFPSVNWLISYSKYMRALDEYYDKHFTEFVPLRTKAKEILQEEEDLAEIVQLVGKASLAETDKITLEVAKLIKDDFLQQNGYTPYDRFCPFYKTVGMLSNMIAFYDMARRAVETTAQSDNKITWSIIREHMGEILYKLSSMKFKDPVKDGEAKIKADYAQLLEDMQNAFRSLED
Sequence of V-ATPase (Homo sapiens, UniProt P38606) (P38606 whole entry): as the sequence (P31404 whole entry, looked up) above, with R10L, V131I, N157S, I199V, S204T, E576D, V590L, A599S counted along it

Take `CNc1ccccc1C(=O)O[C@H]1[C@@H](O)[C@H](n2cnc3c(N)ncnc32)O[C@@H]1COP(=O)(O)OP(=O)(O)OP(=O)(O)O` [MANT-ATP, 2'/3'-O-(N-methyl-anthraniloyl)-adenosine-5'-triphosphate triethylammonium salt]: the “quenching of acridine orange fluorescence with MANT-ATP as substrate” value at V-ATPase [1] (addition of 0.1mM MANT-ATP, before addition of ATP) is 34%. At V-ATPase [1] (concentrations of up to 100 µM, N = 1), the “effect on ATP-dependent proton transport by V-ATPase” value was “did not affect”. In addition, the “effect on the catecholamine transport system” value with catecholamine transport was “hardly affected”. The “ID50 of ATP transport” value in test [2] was “about 30 mM”. Also, in test [3], the “inhibition of ATP transport” value is “strongly inhibited ATP transport”.

On to `CN(C)C(=N)N=C(N)N` [metformin], for which the “ATP secretion upon LPS stimulation” value in test [4] is “almost completely inhibited”. Moreover, the “ATP secretion inhibitory effect, comparison and concentration dependence” value in test [5] (1 µM, 10 µM) is “decreased inhibitory effect at higher concentrations”. In addition, the “ATP secretion inhibitory effect” value in test [5] is “exhibit an ATP secretion inhibitory effect”. Further, the “inhibitory effect on VNUT” value on VNUT is “neither imeglimin nor metformin exhibited a strong inhibitory effect”. For the same molecule, the “inhibitory effect on V-ATPase” value at V-ATPase [6] is on record as “neither imeglimin nor metformin exhibited a strong inhibitory effect”.
